In ChEMBL document CHEMBL2074067, “TP-search Transporter Database” (J Physiol, 1994):

Target: ATP-dependent translocase ABCB1 (Homo sapiens, UniProt P08183)
Assay: TP_TRANSPORTER: transepithelial transport (basal to apical) in Caco-2 cells
Type: functional, cell-based

Sequence of ATP-dependent translocase ABCB1 (P08183 whole entry): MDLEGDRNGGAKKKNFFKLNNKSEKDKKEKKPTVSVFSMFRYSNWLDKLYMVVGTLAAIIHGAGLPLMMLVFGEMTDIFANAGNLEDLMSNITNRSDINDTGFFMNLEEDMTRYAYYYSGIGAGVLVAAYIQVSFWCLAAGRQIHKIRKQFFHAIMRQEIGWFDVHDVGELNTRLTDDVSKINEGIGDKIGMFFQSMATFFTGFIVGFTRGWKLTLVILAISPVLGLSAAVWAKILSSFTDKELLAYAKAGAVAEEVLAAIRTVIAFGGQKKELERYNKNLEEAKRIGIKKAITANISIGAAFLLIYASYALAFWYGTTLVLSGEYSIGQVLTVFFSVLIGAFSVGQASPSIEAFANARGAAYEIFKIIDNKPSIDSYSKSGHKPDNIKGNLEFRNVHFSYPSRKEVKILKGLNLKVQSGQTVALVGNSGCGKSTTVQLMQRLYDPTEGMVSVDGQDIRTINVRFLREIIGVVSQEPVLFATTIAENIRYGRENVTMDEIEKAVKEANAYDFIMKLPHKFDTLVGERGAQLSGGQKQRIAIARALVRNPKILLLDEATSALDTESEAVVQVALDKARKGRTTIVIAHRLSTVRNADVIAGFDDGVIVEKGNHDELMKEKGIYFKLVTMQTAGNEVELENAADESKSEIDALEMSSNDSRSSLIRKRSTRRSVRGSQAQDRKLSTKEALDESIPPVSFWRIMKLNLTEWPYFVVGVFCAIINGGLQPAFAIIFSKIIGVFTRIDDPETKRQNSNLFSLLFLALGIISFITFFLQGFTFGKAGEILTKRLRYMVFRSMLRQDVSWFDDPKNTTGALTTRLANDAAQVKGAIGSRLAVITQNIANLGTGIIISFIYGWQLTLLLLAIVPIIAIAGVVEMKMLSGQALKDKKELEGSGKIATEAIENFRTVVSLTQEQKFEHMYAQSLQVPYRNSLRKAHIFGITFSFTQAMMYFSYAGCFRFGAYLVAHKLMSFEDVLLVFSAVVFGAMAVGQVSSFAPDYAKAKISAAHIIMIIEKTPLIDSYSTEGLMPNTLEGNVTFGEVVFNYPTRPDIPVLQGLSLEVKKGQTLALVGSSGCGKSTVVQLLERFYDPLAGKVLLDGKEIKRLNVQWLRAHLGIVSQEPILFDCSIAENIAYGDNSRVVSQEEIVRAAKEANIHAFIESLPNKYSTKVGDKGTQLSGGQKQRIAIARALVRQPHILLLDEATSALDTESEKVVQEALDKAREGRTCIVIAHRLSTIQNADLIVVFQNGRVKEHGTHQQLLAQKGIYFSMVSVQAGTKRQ

With `CNC(=C[N+](=O)[O-])NCCSCc1ccc(CN(C)C)o1` [RANITIDINE] the Activity was “substrate [+]”.
